From the NIST ThermoML archive (doi:10.1016/j.jct.2015.11.012)

Assay: xn = mol fraction of the nth substance listed
Settings: 100 kPa, Liquid; for viscosity: Capillary tube (Ostwald / Ubbelohde) method; for speed of sound: Frequency=2 MHz, Linear variable-path acoustic interferometer; for mass density: Vibrating tube method

Nc1cccc(Cl)c1 [3-chlorobenzenamine] + NCCO
Settings	mass density [kg/m3]	speed of sound [m/s]	viscosity [mPa·s]
303.15 K, x1 = 0.0857	1037.07	1689	13.56
303.15 K, x1 = 0.1749	1063.03	1674.4	12.66
303.15 K, x1 = 0.2679	1086.86	1658.9	11.72
303.15 K, x1 = 0.3619	1108.19	1642.4	10.77
303.15 K, x1 = 0.4597	1127.88	1624.3	9.773
303.15 K, x1 = 0.5607	1145.96	1604.9	8.747
303.15 K, x1 = 0.6649	1162.61	1584.1	7.685
303.15 K, x1 = 0.7726	1177.97	1562.3	6.586
303.15 K, x1 = 0.8835	1192.12	1540.1	5.451
303.15 K, x1 = 1	1205.32	1517.5	4.255
308.15 K, x1 = 0.0857	1032.99	1673.4	11.04
308.15 K, x1 = 0.1749	1058.89	1659.2	10.35
308.15 K, x1 = 0.2679	1082.69	1643.1	9.621
308.15 K, x1 = 0.3619	1103.96	1626	8.885
308.15 K, x1 = 0.4597	1123.59	1607.5	8.117
308.15 K, x1 = 0.5607	1141.65	1588.1	7.322
308.15 K, x1 = 0.6649	1158.22	1568.1	6.5
308.15 K, x1 = 0.7726	1173.53	1547.2	5.649
308.15 K, x1 = 0.8835	1187.62	1525.2	4.77
308.15 K, x1 = 1	1200.75	1501.2	3.842
313.15 K, x1 = 0.0857	1029.02	1658.8	9.049
313.15 K, x1 = 0.1749	1054.84	1643.8	8.509
313.15 K, x1 = 0.2679	1078.52	1626.5	7.944
313.15 K, x1 = 0.3619	1099.7	1608.2	7.37
313.15 K, x1 = 0.4597	1119.25	1588.8	6.771
313.15 K, x1 = 0.5607	1137.2	1568.9	6.151
313.15 K, x1 = 0.6649	1153.72	1548.6	5.51
313.15 K, x1 = 0.7726	1168.97	1527.7	4.846
313.15 K, x1 = 0.8835	1182.98	1505.5	4.157
313.15 K, x1 = 1	1196.02	1480.3	3.43
318.15 K, x1 = 0.0857	1024.4	1642	7.182
318.15 K, x1 = 0.1749	1050.2	1627.5	6.785
318.15 K, x1 = 0.2679	1073.86	1610.2	6.368
318.15 K, x1 = 0.3619	1095.02	1591.7	5.944
318.15 K, x1 = 0.4597	1114.53	1572.2	5.501
318.15 K, x1 = 0.5607	1132.47	1552.5	5.043
318.15 K, x1 = 0.6649	1149	1532.6	4.568
318.15 K, x1 = 0.7726	1164.23	1512.3	4.075
318.15 K, x1 = 0.8835	1178.23	1490.5	3.565
318.15 K, x1 = 1	1191.25	1464.8	3.022

Nc1cccc(Cl)c1 [3-chlorobenzenamine] + OCCc1ccccc1
Settings	mass density [kg/m3]	speed of sound [m/s]	viscosity [mPa·s]
303.15 K, x1 = 0.0855	1027.23	1509.6	8.643
303.15 K, x1 = 0.1746	1043.06	1511	8.223
303.15 K, x1 = 0.2665	1059.74	1512.3	7.787
303.15 K, x1 = 0.3613	1077.27	1513.6	7.335
303.15 K, x1 = 0.4491	1093.81	1514.6	6.916
303.15 K, x1 = 0.5201	1107.41	1515.4	6.576
303.15 K, x1 = 0.6594	1134.71	1516.5	5.907
303.15 K, x1 = 0.7692	1156.83	1517	5.377
303.15 K, x1 = 0.8787	1179.49	1517.3	4.846
303.15 K, x1 = 1	1205.32	1517.5	4.255
308.15 K, x1 = 0.0855	1023.5	1492.2	6.915
308.15 K, x1 = 0.1746	1039.28	1493.6	6.623
308.15 K, x1 = 0.2665	1055.88	1495	6.319
308.15 K, x1 = 0.3613	1073.34	1496.3	6.005
308.15 K, x1 = 0.4491	1089.81	1497.4	5.712
308.15 K, x1 = 0.5201	1103.34	1498.3	5.473
308.15 K, x1 = 0.6594	1130.52	1499.6	5.005
308.15 K, x1 = 0.7692	1152.56	1500.4	4.632
308.15 K, x1 = 0.8787	1175.08	1500.9	4.259
308.15 K, x1 = 1	1200.75	1501.2	3.842
313.15 K, x1 = 0.0855	1019.67	1472	5.867
313.15 K, x1 = 0.1746	1035.39	1473.4	5.638
313.15 K, x1 = 0.2665	1051.92	1474.6	5.398
313.15 K, x1 = 0.3613	1069.28	1475.8	5.149
313.15 K, x1 = 0.4491	1085.67	1476.9	4.918
313.15 K, x1 = 0.5201	1099.15	1477.7	4.729
313.15 K, x1 = 0.6594	1126.19	1478.9	4.357
313.15 K, x1 = 0.7692	1148.11	1479.7	4.061
313.15 K, x1 = 0.8787	1170.53	1480.3	3.763
313.15 K, x1 = 1	1196.02	1480.3	3.43
318.15 K, x1 = 0.0855	1015.75	1457.9	4.827
318.15 K, x1 = 0.1746	1031.43	1459.1	4.659
318.15 K, x1 = 0.2665	1047.87	1460.2	4.483
318.15 K, x1 = 0.3613	1065.15	1461.2	4.3
318.15 K, x1 = 0.4491	1081.46	1462.1	4.129
318.15 K, x1 = 0.5201	1094.86	1462.8	3.989
318.15 K, x1 = 0.6594	1121.8	1463.9	3.714
318.15 K, x1 = 0.7692	1143.63	1464.6	3.494
318.15 K, x1 = 0.8787	1165.92	1464.8	3.272
318.15 K, x1 = 1	1191.25	1464.8	3.022
